Source: patent US8183243B2, “Melanocortin receptor agonists” (LG Life Sciences Ltd., priority 2008, dated 2012)
Like-named read-outs stand apart in the source and are kept apart here.

Biological target: T1, MC4R (Homo sapiens, UniProt P32245)
T1 construct: expressed in transfected cells; host or cells: HEK (Human Embryonic Kidney) permanent expression cell line HEK MC4R-Luc, co-expressing CRE-luciferase
Assay: MCR agonistic activity (luciferase assay / cAMP accumulation assay) on MC4R
Assay type: cell-based
Details: HEK cell lines expressing MC4R, not said which
Procedure: Physiological activity of the compounds of the present invention was assessed by measuring agonistic activity as well as binding activity for melanocortin receptors (MCR) according to methods A and B explained as follows.
As one of the methods to measure MCR agonistic activity of the compound according to the present invention, the expression level of a marker gene (for example, luciferase) which increases proportionally according to the increase of cAMP content in the cell, was measured.
First, permanent expression HEK (Human Embryonic Kidney) cell lines (HEK MC1R-Luc, MC3R-Luc, MC4R-Luc or MC5R-Luc) expressing the MCR gene of each subtype together with luciferase gene (CRE-LUC) under the control of CRE (cAMP Response Element) were constructed. The above cell lines were incubated in an incubator with 6% CO2 atmosphere at 37° C. using selection medium, DMEM(Dulbecco's Modified Eagles Medium) containing 10% heat-inactivated fetal bovine serum (Gibco/BRL), 100 unit/ml, penicillin (Gibco/BRL), 100 unit/ml streptomycin (Gibco/BRL), and 200 μg/ml geneticin (G418) (Gibco/BRL). When the cell covered 70% of total surface of the culture dish with 100 mm diameter, the culture dish was rinsed one time with 10 ml Phosphate Buffered Saline(PBS) free of Ca^++ and Mg^++, and then 3 ml PBS solution containing 0.05% trypsin and 0.53 mM EDTA was added thereto. After the trypsin/EDTA solution was removed, the cell lines were incubated in an thermostatic incubator for 1 minute at 37° C., and resuspended in 10 ml selection medium and centrifuged for 5 minutes at 1500 rpm. The supernatant was discarded and the settled cells were resuspended in 5 ml selection medium free of Phenol Red. The resulting cell-suspension was plated onto each well of 96-well culture plates for Luminometer(Costar) with a concentration of 5×10^4 cell in 100 μl culture medium for each well and incubated in the incubator with 6% CO2 atmosphere at 37° C. for 18 hours. With MCR agonists (Example compounds) diluted stepwise using the above culture medium, the cells were treated under the condition of the final DMSO concentration not exceeding 1%, and incubated for 5 hours in the atmosphere of 6% CO2 at 37° C. Then, 50 μl Bright-Glo (Promega) was added to each well. After allowing the treated cells to be at room temperature for 15 minutes, luminescence was measured for each well by using luminometer (Victor). The level of luminescence induced by the stepwise-diluted agonist was converted to relative % value to those by the treatment of 10 nM NDP-MSH. The EC50 indicates the concentration of each agonist for inducing 50% of maximal luminescence by each agonist and this value was measured by a statistical software (Prizm).
B. cAMP Accumulation Assay
As another method to measure MCR agonistic activity of the compound according to the present invention, an increase of cAMP amount in the cell was measured.
First, permanent expression HEK (Human Embryonic Kidney) cell lines (HEK MC1R-Luc, MC3R-Luc, MC4R-Luc or MCSR-Luc) expressing the MCR gene of each subtype were plated onto each well of 24-well culture plates for Luminometer(Costar) with a concentration of 2×10^5 cell in 1 ml culture medium for each well, and then incubated in an incubator with 6% CO2 atmosphere at 37° C. for 24 hours. The medium was removed from each well followed by rinsing with 0.5 ml cold DMEM one time. With MCR agonists (Example compounds) diluted stepwise using 200 μl DMEM including 500 μM IBMX (isobutylmethylxanthine), the cells were treated under the condition of the final DMSO concentration not exceeding 1%, and incubated for 30 minutes in the atmosphere of 6% CO2 at 37° C. Then, the cAMP amount in each cell was measured using Amersham cAMP assay Kit (TRK432).
More specifically, 14.4 μl of 6M PCA (60%) was added to each well, and allowed to be in ice for 10 minutes, and 200 μl sample was taken from each well and transferred to microcentrifuge tube. […]

[1] = method A (CRE-luciferase) or B (cAMP accumulation), read-out: EC50 value, agonistic activity to MC4R (range per group of Examples)

T1 sequence (P32245 whole entry, species assumed): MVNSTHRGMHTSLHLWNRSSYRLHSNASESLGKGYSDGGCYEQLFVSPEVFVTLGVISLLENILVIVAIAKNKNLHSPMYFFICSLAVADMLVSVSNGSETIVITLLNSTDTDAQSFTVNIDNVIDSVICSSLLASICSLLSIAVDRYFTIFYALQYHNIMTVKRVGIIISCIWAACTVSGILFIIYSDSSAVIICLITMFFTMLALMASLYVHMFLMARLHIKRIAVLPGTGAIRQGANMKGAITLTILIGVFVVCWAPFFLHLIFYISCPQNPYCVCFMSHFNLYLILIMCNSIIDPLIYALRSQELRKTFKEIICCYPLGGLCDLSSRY

Row | Structure (SMILES) | EC50 [1] | EC50 (specific activities of representative compounds, method A or B, read-out: EC50)
1 | CN1CCN(C(=O)[C@@H]2C[C@H](N(C(=O)C(C)(C)C)C3CCC(C)(C)CC3)CN2C(=O)[C@@H]2CN(c3ccccn3)C[C@H]2c2ccc(Cl)cc2)CC1 [Example 64, N-{(3S,5S)-1-{[(3S,4R)-4-(4-chlorophenyl)-1-pyridine-2-ylpyrrolidin-3-yl]carbonyl}-5-[(4-methylpiperazin-1-yl)carbonyl]pyrrolidin-3-yl}-N-(4,4-dimethylcyclohexyl)-2,2-dimethylpropanamide] | 10 to 100 nM | 
2 | CN1CCN(C(=O)[C@@H]2C[C@H](N(C(=O)[C@@H]3CCCO3)C3CCC(C)(C)CC3)CN2C(=O)[C@@H]2CN(C3CC3)C[C@H]2c2ccc(Cl)cc2)CC1 [Example 42, (2S)-N-{(3S,5S)-1-{[(3S,4R)-4-(4-chlorophenyl)-1-cyclopropylpyrrolidin-3-yl]carbonyl}-5-[(4-methylpiperazin-1-yl)carbonyl]pyrrolidin-3-yl}-N-(4,4-dimethylcyclohexyl)tetrahydrofuran-2-carboxamide] | 10 to 100 nM | 
3 | CC(C)N1CCN(C(=O)[C@@H]2C[C@H](N(C(=O)[C@@H]3CCCO3)C3CCC(C)(C)CC3)CN2C(=O)[C@@H]2CN(C3CCSCC3)C[C@H]2c2ccc(F)cc2F)CC1 [Example 48, (2S)-N-{(3S,5S)-1-{[(3S,4R)-4-(2,4-difluorophenyl)-1-(tetrahydro-2H-thiopyran-4-yl)pyrrolidin-3-yl]carbonyl}-5-[(4-isopropylpiperazin-1-yl)carbonyl]pyrrolidin-3-yl}-N-(4,4-dimethylcyclohexyl)tetrahydrofuran-2-carboxamide] | 10 to 100 nM | 
4 | CC(=O)N(C1CCC(C)(C)CC1)[C@H]1C[C@@H](C(=O)N2CCN(C)CC2)N(C(=O)[C@@H]2CN(C(C)(C)C)C[C@H]2c2ccc(F)cc2F)C1 [Example 5, N-{(3S,5S)-1-{[(3S,4R)-1-tert-butyl-4-(2,4-difluorophenyl)pyrrolidin-3-yl]carbonyl}-5-[(4-methylpiperazin-1-yl)carbonyl]pyrrolidin-3-yl}-N-(4,4-dimethylcyclohexyl)acetamide] | 10 to 100 nM | 
5 | CN1CCN(C(=O)[C@H]2C[C@H](N(C(=O)C(C)(C)C)[C@H]3CC[C@@H](C)CC3)CN2C(=O)[C@@H]2CN(C(C)(C)C)C[C@H]2c2ccc(F)cc2F)CC1 [Example 33, N-{(3S,5R)-1-{[(3S,4R)-1-tert-butyl-4-(2,4-difluorophenyl)pyrrolidin-3-yl]carbonyl}-5-[(4-methylpiperazin-1-yl)carbonyl]pyrrolidin-3-yl}-2,2-dimethyl-N-(cis-4-methylcyclohexyl)propanamide] | 10 to 100 nM | 
6 | CN1CCN(C(=O)[C@@H]2C[C@H](N(C(=O)[C@@H]3CCCO3)C3CCC(F)(F)CC3)CN2C(=O)[C@@H]2CN(C3CCOCC3)C[C@H]2c2ccc(Cl)cc2)CC1 [Example 51, (2S)-N-{(3S,5S)-1-{[(3S,4R)-4-(4-chlorophenyl)-1-(tetrahydro-2H-pyran-4-yl)pyrrolidin-3-yl]carbonyl}-5-[(4-methylpiperazin-1-yl)carbonyl]pyrrolidin-3-yl}-N-(4,4-difluorocyclohexyl)tetrahydrofuran-2-carboxamide] | 10 to 100 nM | 
7 | CN1CCN(C(=O)[C@@H]2C[C@H](N(C(=O)C(C)(C)CO)[C@H]3CC[C@@H](C)CC3)CN2C(=O)[C@@H]2CN(C(C)(C)C)C[C@H]2c2ccc(F)cc2F)CC1 [Example 20, N-{(3S,5S)-1-{[(3S,4R)-1-tert-butyl-4-(2,4-difluorophenyl)pyrrolidin-3-yl]carbonyl}-5-[(4-methylpiperazin-1-yl)carbonyl]pyrrolidin-3-yl}-3-hydroxy-2,2-dimethyl-N-(cis-4-methylcyclohexyl)propanamide] | 0.1 to 10 nM | 
8 | CN1CCN(C(=O)[C@@H]2C[C@H](N(C(=O)C(C)(C)C)C3CCC(F)(F)CC3)CN2C(=O)[C@@H]2CN(C3CCOCC3)C[C@H]2c2ccc(Cl)cc2)CC1 [Example 50, N-{(3S,5S)-1-{[(3S,4R)-4-(4-chlorophenyl)-1-(tetrahydro-2H-pyran-4-yl)pyrrolidin-3-yl]carbonyl}-5-[(4-methylpiperazin-1-yl)carbonyl]pyrrolidin-3-yl}-N-(4,4-difluorocyclohexyl)-2,2-dimethylpropanamide] | 0.1 to 10 nM | 

Other lines, results leading:

Row | EC50 [1] | EC50 (specific activities of representative compounds, method A or B, read-out: EC50) | Structure (SMILES)
9 | 0.1 to 10 nM |  | CC(=O)N(C1CCC(C)(C)CC1)[C@H]1C[C@@H](C(=O)N2CCN(C(C)C)CC2)N(C(=O)[C@@H]2CN(C(C)(C)C)C[C@H]2c2ccc(Cl)cc2)C1 [Example 9, N-{(3S,5S)-1-{[(3S,4R)-1-tert-butyl-4-(4-chlorophenyl)pyrrolidin-3-yl]carbonyl}-5-[(4-isopropylpiperazin-1-yl)carbonyl]pyrrolidin-3-yl}-N-(4,4-dimethylcyclohexyl)acetamide]
10 | 0.1 to 10 nM |  | CC(=O)N(C1CCC(C)CC1)[C@H]1C[C@H](C(=O)N2CCN(C)CC2)N(C(=O)[C@@H]2CN(C3CCOCC3)C[C@H]2c2ccc(Cl)cc2)C1 (stereo partly drawn) [Example 54, N-{(3S,5R)-1-{[(3S,4R)-4-(4-chlorophenyl)-1-(tetrahydro-2H-pyran-4-yl)pyrrolidin-3-yl]carbonyl}-5-[(4-methylpiperazin-1-yl)carbonyl]pyrrolidin-3-yl}-N-(4-methylcyclohexyl)acetamide]
11 | 0.1 to 10 nM | 10 nM | CC(=O)N(C1CCC(C)(C)CC1)[C@H]1C[C@@H](C(=O)N2CCN(C)CC2)N(C(=O)[C@@H]2CN(C(C)(C)C)C[C@H]2c2ccc(Cl)cc2)C1 [Example 1, N-{(3S,5S)-1-{[(3S,4R)-1-tert-butyl-4-(4-chlorophenyl)pyrrolidin-3-yl]carbonyl}-5-[(4-methylpiperazin-1-yl)carbonyl]pyrrolidin-3-yl}-N-(4,4-dimethylcyclohexyl)acetamide]
12 | 0.1 to 10 nM |  | CN1CCN(C(=O)[C@@H]2C[C@H](N(C(=O)[C@@H]3CCCO3)[C@H]3CC[C@@H](C)CC3)CN2C(=O)[C@@H]2CN(c3ccccn3)C[C@H]2c2ccc(F)cc2F)CC1 [Example 68, (2S)-N-{(3S,5S)-1-{[(3S,4R)-4-(2,4-difluorophenyl)-1-pyridine-2-ylpyrrolidin-3-yl]carbonyl}-5-[(4-methylpiperazin-1-yl)carbonyl]pyrrolidin-3-yl}-N-(cis-4-methylcyclohexyl)tetrahydrofuran-2-carboxamide]
13 | 0.1 to 10 nM |  | CN1CCN(C(=O)[C@@H]2C[C@H](N(C(=O)C(C)(C)C)[C@H]3CC[C@@H](C)CC3)CN2C(=O)[C@@H]2CN(C(C)(C)C)C[C@H]2c2ccc(Cl)cc2)CC1 [Example 17, N-{(3S,5S)-1-{[(3S,4R)-1-tert-butyl-4-(4-chlorophenyl)pyrrolidin-3-yl]carbonyl}5-[(4-methylpiperazin-1-yl)carbonyl]pyrrolidin-3-yl}-2,2-dimethyl-N-(cis-4-methylcyclohexyl)propanamide]
14 | 0.1 to 10 nM |  | CC(C)N1CCN(C(=O)[C@@H]2C[C@H](N(C(=O)[C@@H]3CCCO3)[C@H]3CC[C@@H](C)CC3)CN2C(=O)[C@@H]2CN(C(C)(C)C)C[C@H]2c2ccc(Cl)cc2)CC1 [Example 23, (2S)-N-{(3S,5S)-1-{[(3S,4R)-1-tert-butyl-4-(4-chlorophenyl)pyrrolidin-3-yl]carbonyl}-5-[(4-isopropylpiperazin-1-yl)carbonyl]pyrrolidin-3-yl}-N-(cis-4-methylcyclohexyl)tetrahydrofuran-2-carboxamide]
